Measurements: patent US20250066395A1, “Detecting and Separating Rare Earth Metal Mixtures” (Board of Regents, The University of Texas System, priority 2023, published 2025)

Text: We have selected water and ethyl acetate (EtOAc) for their “green solvent” properties of being safe to handle, eco-friendly, little to no hazardous waste, etc.

With scandium the Soluble in water was “soluble”.
For yttrium, the Soluble in water was “soluble”.
